Reference: EP4711365A1 (Shanghai Hansoh Biomedical Co., Ltd., priority 2023, dated 2024)

Assays:
[1] = molecular target: T1, human IL-17RA and IL-17A proteins (Homo sapiens, UniProt Q16552); assay: Competitive ELISA: blocking of binding between human IL-17RA and IL-17A; details: coated IL-17A, IL-17RA 5 nM
T1 sequence (Q16552 24-155): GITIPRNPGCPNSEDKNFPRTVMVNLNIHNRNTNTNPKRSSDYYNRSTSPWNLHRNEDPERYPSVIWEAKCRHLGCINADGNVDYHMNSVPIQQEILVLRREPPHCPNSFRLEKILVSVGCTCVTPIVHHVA
Protocol: Test example 1 Assay for competitive binding effect between compounds of the present invention and human IL-17 receptor for ligand
1. Experimental objective: to quantitatively determine the blocking effect of the compound on the binding between human IL-17RA and IL-17A proteins using competitive ELISA under in vitro conditions. 2. Experimental instruments and reagents: 2.1 Instruments:
2.2 Reagents: 3. Experimental method: IL-17A at 0.0625 µg/mL was coated in a 96-well plate at 4°C overnight at 100 µL per well. The plate was washed with PBST (300 µL/well x 4), and then blocked at 24°C for 2 h by adding 300 µL of ELISA Blocker blocking buffer to each well. The plate was further washed under the same conditions. 80 µL of PBS solution containing 1% BSA and 10 µL of 10× test compound solution were added to each well and mixed uniformly, and then the mixture was incubated at room temperature for 1 hour. After that, 10 µL of IL-17RA solution was added to a final concentration of 5 nM and mixed uniformly, and then the mixture was incubated at 24°C for 1 h. The corresponding concentration and volume of DMSO solution without compounds was added to positive control wells, and 1% BSA solution without IL-17RA was added to negative control wells.
After the plate was washed four times, 100 µL of the anti-Fc tag HRP-conjugated antibody was added, and the mixture was incubated at 37°C for 1 h. After the plate was washed four times, 100 µL of TMB substrate was added to each well, and the mixture was incubated at 37°C in the dark. After colour development was completed, the reaction was terminated by adding 100 µL of stop solution to each well, and the absorbance was measured at wavelengths of 450 nm and 570 nm using a microplate reader.
• 1) Inhibition rate (%): The original data (OD450-OD570) was calculated according to the following formula to obtain the inhibition rate. Inhibition rate% = [(average value of positive control wells - value of sample wells)/(average value of positive control wells - average value of negative control wells)] × 100, where the positive control wells are wells without compounds, and the negative control wells are wells without IL-17RA protein solution. • 2) Curve fitting: Log(inhibitor) vs. response -- Variable slope (four parameters) in GraphPad Prism 8 was used for fitting equation analysis of the compound concentration and the corresponding inhibition rate, and the curve was fitted to obtain the IC50 value of the compound. The fitting calculation equation was Y = Bottom + (Top - Bottom) / (1 + 10^((LogIC50 - X) * HillSlope)).

[2] = system: Groα secretion by HT-29 cells; assay: Inhibition of Groα secretion by HT-29 cells stimulated with IL-17A (ELISA); format: cell-based, Human; details: Homo sapiens, IL-17A 30 ng/ml, 48 hours, Groα in supernatant
Outline: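 HT-29 cells (10,000/well) were cultured overnight, then given compound pre-mixed 30 min with IL-17A (final 30 ng/ml) and incubated 48 hours at 37°C. Groα in supernatant was measured by ELISA at 450 nm; inhibition relative to IL-17A-stimulated control, IC50 from four-parameter fit.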

[3] = Pharmacokinetic assay in Wistar rats, oral; details: rat, plasma, 30 mg/kg
Protocol: Experimental objective: to study the pharmacokinetic behaviours of the compounds of the present invention in the body (plasma) of Wistar rats as test animals after oral administration at a dose of 30 mg/kg. • 2. Experimental scheme • 2.1 Test drugs: the examples of the present invention, prepared in house. • 2.2 Test animals: Wistar rats (female, 3 rats per group), from Beijing Vital River Laboratory Animal Technology Co., Ltd., with the animal production license no.
Solutol HS15 was melted in a water bath at 50-60°C, and then 50 mL of the melted Solutol HS15 was added to 450 mL of ultrapure water. The mixture was stirred and sonicated to obtain 500 mL of 10% Solutol HS15 solution. The compound was weighed, and according to the total administration volume, 30% PEG solution was first added. The mixture was shaken uniformly and sonicated until a clear solution was obtained. Subsequently, 70% (10% Solutol) in water was added, resulting in a colourless and clear solution with a concentration of 3.0 mg/mL.
2.4 Administration scheme: After overnight fasting, 3 female Wistar rats per group were administered orally (PO) at a dose of 30 mg/kg with an administration volume of 10 mL/kg.
• 1) To 50 uL of plasma sample was added 250 uL of acetonitrile for precipitation, and the mixture was mixed and then centrifuged at 4°C at 4000 rpm for 20 minutes. • 2) The treated supernatant solution was taken and subjected to LC/MS/MS to analyse the concentration of the test compounds. LC/MS/MS analysis instrument: AB Sciex API-4000 Qtrap-Shimadzu Controller-CBM20A.
• Chromatographic column: Waters Xbridge C18 3.5 um 2.1*50 mm • Mobile phase: solution A: 0.1% formic acid in water, and solution B: 0.1% formic acid in acetonitrile • Flow rate: 0.6 mL/min • Elution time: 0-3.5 minutes, with eluents as follows:

Structure (SMILES)	IC50 [1]	IC50 [2]	AUC(0-t) [3]	Cmax [3]	Tmax [3]	half-life [3]
C[C@H]1CC[C@H]([C@H](NC(=O)C2(F)CC2)C(=O)Nc2ncc([C@@H](CN3CCC(F)(F)CC3)N3CC(F)(F)CNC3=O)s2)CC1 [Example 763, N-((S)-2-((5-((R)-1-(5,5-difluoro-2-oxotetrahydropyrimidin-1(2H)-yl)-2-(4,4-difluoropiperidin-1-yl)ethyl)thiazol-2-yl)amino)-1-((1r,4S)-4-methylcyclohexyl)-2-oxoethyl)-1-fluorocyclopropane-1-carboxamide]	6 nM	4.5 nM	15900 ng·h/mL	1480 ng/mL	4 h	3.4 h
CC1CCC(C(NC(=O)C2(F)CC2)C(=O)Nc2ncc(C(CN3C(C)COCC3C)N3CC(F)(F)CNC3=O)s2)CC1 (centres unmarked) [Example 739]	5 nM	3 nM	10300 ng·h/mL	1940 ng/mL	2 h	2.5 h
C[C@H]1CC(F)(F)CCN1C[C@H](c1cnc(NC(=O)[C@@H](NC(=O)C2(F)CC2)[C@H]2CC[C@H](C)CC2)s1)N1CC(F)(F)CNC1=O [Example 764]	7 nM	7 nM	11700 ng·h/mL	1090 ng/mL	4 h	4.1 h
C[C@@H]1CN(C[C@H](c2cnc(NC(=O)[C@@H](NC(=O)C3(F)CC3)[C@H]3CC[C@H](C)CC3)s2)N2CC(F)(F)CNC2=O)[C@@H](C)CO1 [Example 731]	6.6 nM	6 nM	14300 ng·h/mL	1840 ng/mL	2 h	2.3 h
C[C@H]1CC[C@H]([C@H](NC(=O)C2(F)CC2)C(=O)Nc2ncc([C@@H](CN3CCC(C(F)F)CC3)N3CC(F)(F)CNC3=O)s2)CC1 [Example 770]	7 nM	3.4 nM	11600 ng·h/mL	1350 ng/mL	4 h	3.5 h
C[C@@H]1CN(C[C@H](c2cnc(NC(=O)[C@@H](NC(=O)C3(F)CC3)[C@H]3CC[C@H](C)CC3)s2)N2CC(F)(F)CNC2=O)[C@H](C)CO1 [Example 736, N-((S)-2-((5-((R)-1-(5,5-difluoro-2-oxotetrahydropyrimidin-1(2H)-yl)-2-((2R,5R)-2,5-dimethylmorpholino)ethyl)thiazol-2-yl)amino)-1-((1r,4S)-4-methylcyclohexyl)-2-oxoethyl)-1-fluorocyclopropane-1-carboxamide]	3.6 nM	1 nM	10800 ng·h/mL	1310 ng/mL	2 h	2.4 h
[2H]C([2H])([2H])OC1(C)CCN(C[C@H](c2cnc(NC(=O)[C@@H](NC(=O)C3(F)CC3)[C@H]3CC[C@H](C)CC3)s2)N2CC(F)(F)CNC2=O)CC1 [Example 787]	9 nM	8.9 nM	18800 ng·h/mL	2330 ng/mL	2 h	2.4 h
CCc1nonc1C(=O)N[C@H](C(=O)Nc1ncc([C@@H](COC)N2CC(F)(F)CNC2=O)s1)[C@H]1CC[C@H](C)CC1 [Example 556]	1.8 nM	4.6 nM	22100 ng·h/mL	2390 ng/mL	2 h	2.3 h
C[C@@H]1CN(C[C@H](c2cnc(NC(=O)[C@@H](NC(=O)C3(F)CC3)[C@H]3CC[C@H](C)CC3)s2)N2CC(F)(F)CNC2=O)CCO1 [Example 1012, N-((S)-2-((5-((R)-1-(5,5-difluoro-2-oxotetrahydropyrimidin-1(2H)-yl)-2-((R)-2-methylmorpholino)ethyl)thiazol-2-yl)amino)-1-((1r,4S)-4-methylcyclohexyl)-2-oxoethyl)-1-fluorocyclopropane-1-carboxamide]	6 nM	3 nM	14200 ng·h/mL	2220 ng/mL	2 h	2.3 h
C[C@H]1COCCN1C[C@H](c1cnc(NC(=O)[C@@H](NC(=O)C2(F)CC2)[C@H]2CC[C@H](C)CC2)s1)N1CC(F)(F)CNC1=O [Example 1014, N-((S)-2-((5-((R)-1-(5,5-difluoro-2-oxotetrahydropyrimidin-1(2H)-yl)-2-((S)-3-methylmorpholino)ethyl)thiazol-2-yl)amino)-1-((1r,4S)-4-methylcyclohexyl)-2-oxoethyl)-1-fluorocyclopropane-1-carboxamide]	7 nM	8 nM	12800 ng·h/mL	1670 ng/mL	4 h	2.4 h
C[C@H]1CC[C@H]([C@H](NC(=O)OC2CC2)C(=O)Nc2ncc([C@@H](CC3CC3)N3CC(F)(F)CNC3=O)s2)CC1 [Example 524]	3.6 nM	9.3 nM	–	–	–	–
C[C@@H]1CN(C[C@H](c2cnc(NC(=O)[C@@H](NC(=O)C(F)(F)C3CC3)[C@H]3CC[C@H](C)CC3)s2)N2CC(F)(F)CNC2=O)C[C@H](C)O1 [Example 725]	5.6 nM	2.5 nM	–	–	–	–
C[C@H]1CC[C@H]([C@H](NC(=O)C2(F)CC2)C(=O)Nc2ncc([C@@H](CN3CCO[C@H](CF)C3)N3CC(F)(F)CNC3=O)s2)CC1 [Example 696, N-((S)-2-((5-((R)-1-(5,5-difluoro-2-oxotetrahydropyrimidin-1(2H)-yl)-2-((S)-2-(fluoromethyl)morpholino)ethyl)thiazol-2-yl)amino)-1-((1r,4S)-4-methylcyclohexyl)-2-oxoethyl)-1-fluorocyclopropane-1-carboxamide]	5 nM	2 nM	–	–	–	–
C[C@H]1CC[C@H]([C@H](NC(=O)C(F)(F)C2CC2)C(=O)Nc2ncc([C@@H](CN3CCO[C@H](CF)C3)N3CC(F)(F)CNC3=O)s2)CC1 [Example 700]	3.4 nM	2.6 nM	–	–	–	–
